{"source": "ChEMBL document CHEMBL1671737", "about": "“Impact of recA on levofloxacin exposure-related resistance development” (2010)", "key": {"Staphylococcus aureus [1]": {"tested_on": "Staphylococcus aureus", "assay": "Antimicrobial activity against recA-deficient Staphylococcus aureus ASAU022 infected in in vitro hollow fiber infection model assessed as suppression of microbial resistance at AUC/MIC ratio of 31", "format": "functional, organism-based"}, "Escherichia coli": {"tested_on": "Escherichia coli", "assay": "Antimicrobial activity against recA-deficient Escherichia coli MG1655 after 24 hrs by modified broth macrodilution method", "format": "functional", "settings": "MG1655, 24 h"}, "Staphylococcus aureus [2]": {"tested_on": "Staphylococcus aureus", "assay": "Bactericidal activity against recA-deficient Staphylococcus aureus ASAU022 assessed as induction of slow growth rate at 0.5 times MIC by time kill study", "format": "functional, organism-based"}, "Staphylococcus aureus [3]": {"tested_on": "Staphylococcus aureus", "assay": "Antimicrobial activity against recA-deficient Staphylococcus aureus ASAU022 after 24 hrs by modified broth macrodilution method", "settings": "ASAU022, 24 h"}, "Staphylococcus aureus [4]": {"tested_on": "Staphylococcus aureus", "assay": "Antimicrobial activity against methicillin-resistant Staphylococcus aureus ASAU021 infected in in vitro hollow fiber infection model assessed as suppression of microbial resistance at AUC/MIC ratio of >32", "format": "functional, organism-based"}, "Staphylococcus aureus [5]": {"tested_on": "Staphylococcus aureus", "assay": "Antimicrobial activity against recA-deficient Staphylococcus aureus ASAU022 infected in in vitro hollow fiber infection model assessed as suppression of microbial resistance at AUC/MIC ratio of >23", "format": "functional, organism-based"}, "Staphylococcus aureus [6]": {"tested_on": "Staphylococcus aureus", "assay": "Bactericidal activity against recA-deficient Staphylococcus aureus ASAU022 assessed as induction of increase bacterial kill rate at 2 times MIC by time kill study", "format": "functional, organism-based"}, "Staphylococcus aureus [7]": {"tested_on": "Staphylococcus aureus", "assay": "Antimicrobial activity against methicillin-resistant Staphylococcus aureus ASAU021 after 24 hrs by modified broth macrodilution method", "settings": "ASAU021, 24 h"}}, "note": "Calls of active or inactive are those of the source. No cut-off for these calls is given here."}
{"smiles": "C[C@H]1COc2c(N3CCN(C)CC3)c(F)cc3c(=O)c(C(=O)O)cn1c23.C[C@H]1COc2c(N3CCN(C)CC3)c(F)cc3c(=O)c(C(=O)O)cn1c23.O", "note": "[LEVOFLOXACIN]", "values": [{"measurement": "Activity", "setting": "Staphylococcus aureus [1]", "value": "Active"}, {"measurement": "MIC", "setting": "Escherichia coli", "value": 0.004, "unit": "µg/mL"}, {"measurement": "inhibition", "setting": "Staphylococcus aureus [2]", "value": "Active"}, {"measurement": "MIC", "setting": "Staphylococcus aureus [3]", "value": 0.25, "unit": "µg/mL"}, {"measurement": "Activity", "setting": "Staphylococcus aureus [4]", "value": "Active"}, {"measurement": "Activity", "setting": "Staphylococcus aureus [5]", "value": "Active"}, {"measurement": "inhibition", "setting": "Staphylococcus aureus [6]", "value": "Active"}, {"measurement": "MIC", "setting": "Staphylococcus aureus [7]", "value": 1, "unit": "µg/mL"}]}
